Earlier results in patent US8633332B2, “Efficient isolation of cimiracemate A, and methods of use” (Purapharm Company Limited, priority 2009, dated 2014).
“Also recorded” adds a separate entry of the source.

Legend:
TNF-α = details: human macrophages
MAP kinase = details: human macrophages
[1] = tested on: specific transcription factors; details: human macrophages, LPS-induced

inhibition of LPS-induced MAP kinase activities (specific kinase phosphorylation) (MAP kinase): suppresses; also recorded: inhibit
SMILES: COc1ccc(/C=C/C(=O)OCC(=O)Cc2ccc(O)c(O)c2)cc1O [Cimiracemate A]
suppression of LPS-induced TNF-α production (TNF-α): suppresses; also recorded: suppress
inhibition of activation of specific transcription factors [1]: suppresses; also recorded: inhibit
